Reference: patent publication US7390830B1, “Remedies or prophylactics for diseases in association with chemokines” (Teijin Limited, priority 1999, dated 2008)

How the values were obtained:
[1] = molecular target: T1, human MCP-1 binding to THP-1 cells (Homo sapiens, UniProt P41597); assay: Inhibitory activity against binding of [125I]-labeled human MCP-1 to THP-1 cells (method 2); conditions: concentration of 1 μM
T1 construct: endogenous in cells; host or cells: THP-1 (whole cells)
T1 sequence (P41597 1-360 isoform P41597-2): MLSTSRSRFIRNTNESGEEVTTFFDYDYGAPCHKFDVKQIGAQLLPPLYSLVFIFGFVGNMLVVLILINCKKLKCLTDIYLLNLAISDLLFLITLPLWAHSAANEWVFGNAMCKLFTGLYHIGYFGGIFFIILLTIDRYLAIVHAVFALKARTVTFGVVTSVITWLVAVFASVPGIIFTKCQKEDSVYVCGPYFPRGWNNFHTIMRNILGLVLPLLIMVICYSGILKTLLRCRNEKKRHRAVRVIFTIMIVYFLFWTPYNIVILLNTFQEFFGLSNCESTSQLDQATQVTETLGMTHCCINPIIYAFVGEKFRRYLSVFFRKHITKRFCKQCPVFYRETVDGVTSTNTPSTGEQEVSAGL
From the text: Two kinds of DNA synthetic primers (5′-[…]-3′ (SEQ ID NO:1) and 5′-[…]-3′) (SEQ ID NO:2) having restriction enzyme recognition sites applied on the basis of the known human MCP-1 gene sequence (see, for example, Yoshimura, T. et al. FEBS Letters 1989, 244, 487-493) were used to amplify a cDNA derived from human vascular endothelial cells (purchased from Kurabow) according to a PCR method. The amplified fragment was cleaved with restriction enzymes (PstI and XbaI) and then ligated into a transfer vector pVL1393 (Invitrogen Co.). The resulting vector was co-transfected with an infectious baculovirus into Sf-9 insect cells. Human MCP-1 gene recombinant baculoviruses were isolated from the obtained supernatant by a plaque assay method.
According to the method of Ishii, K. et al. (see Biochemical and Biophysical Research Communications, 1995, 206, 955-961), 5×10^6 cells of Sf-9 insect cells were infected with 5×10^7 PFU (plaque-forming units) of the above human MCP-1 gene recombinant baculoviruses and cultured in EX-CELL 401 medium for 7 days. The resulting culture supernatant was affinity purified by a heparin-Sepharose column (Pharmacia Co.) and then subjected to reverse phase HPLC (Vydac C18 column) to afford a purified human MCP-1. The protein labeling of the resulting purified human MCP-1 was requested for Amersham Co. to obtain a [^125I]-labeled human MCP-1 expressed with baculovirus (specific activity: 2000 Ci/mmol) prepared by the Bolten Hunter method. The resulting [^125I]-labeled human MCP-1 was used for the following tests.
THP-1 cells which are human monocytic leukemia cell line were suspended in an assay buffer (containing 50 mM of HEPES, 11.0 mM of CaCl2, 5.0 mM of MgCl2 and 0.5% of BSA at pH 7.4) so as to provide 1×10^7 cells/mL to thereby obtain a cell suspension. A solution obtained by diluting the test compound with the assay buffer was used as a test compound solution. A solution prepared by diluting the above [^125I]-labeled human MCP-1 expressed with baculovirus with the assay buffer so as to provide 1 μCi/mL was used as a labeled ligand solution. In a 96-well filter plate (Millipore Co.), were aliquoted 25 μL of the test compound solution, 25 μL of the labeled ligand solution and 50 μL of the cell suspension in the order mentioned for each well. The solutions were stirred (100 μL of the reaction solution) and then incubated at 18° C. for 1 hour.
After completing the reaction, the reaction solution was filtered through a filter, and the filter was washed with 200 μL of cold PBS twice (the reaction solution was filtered after adding 200 μL of the cold PBS). The filter was air-dried, and […] of liquid scintillator was then added by into each well to count the radioactivity retained by the cells on the filter using TopCount (Packard Instrument Co.). The count when 100 ng of the above human MCP-1 expressed with baculovirus(unlabeled) instead of the test compound was added was subtracted as nonspecific adsorption, and the count when the test compound was not added was 100%. Thereby, the inhibitory activity of the test compound against binding of the human MCP-1 to THP-1 cells was calculated. Inhibition ratio (%)={1−(A−B)/(C−B)}×100 (wherein A is the count when the test compound is added; B is the count when 100 ng of the unlabeled human MCP-1 is added; C is the count when only the [^125I]-labeled human MCP-1 is added).

[2] = system: THP-1 cells; assay: Inhibitory activity against cell chemotaxis caused by MCP-1; type: cell-based; conditions: Homo sapiens, MCP-1 20 ng/mL
From the text: In order to determine the inhibitory activity of the compounds according to the present invention against the cell chemotaxis, human monocytic leukemia cell line THP-1 was used as chemotactic cells according to the method of Fall et al. (J. Immunol. Methods, 1980, 33, 239-247) to determine the cell chemotaxis caused by monocyte chemotactic factor MCP-1 as follows: Namely, 2×10^6 cells/mL of the THP-1 cells [suspended in RPMI-1640 (Flow Laboratories Co.) 10% FCS] were placed in the upper chamber (200 μL) of a 96-well microchemotaxis chamber (Neuroprobe®), and human recombinant MCP-1 (Peprotech Co.) diluted with the same solution so as to provide the final concentration of 20 ng/mL was placed in the lower chamber (35 μL). A polycarbonate filter (PVP-free, Neuroprobe®) was placed between the two chambers. These were incubated in the presence of 5% of CO2 at 37° C. for 2 hours.
The filter was removed, and the cells which had migrated to the undersurface of the filter were immobilized, stained using Diff Quick (Kokusai Shiyaku Co.) and then measured at a measuring wavelength of 550 nm using a plate reader (Molecular Device Co.) to determine the means of 3 wells. Thereby, the indication of the number of cells migrated was obtained. The test compound together with the THP-1 cells was added to the upper chamber at various concentrations to determine the inhibitory activity against cell chemotaxis [degree of inhibition: IC50 (μM)].

| SMILES | inhibition at 1 µM [1] [%] | IC50 [2] [nM] |
| --- | --- | --- |
| COc1ccc(CN2CCC(CNC(=O)CNC(=O)c3cccc(C(F)(F)F)c3)CC2)cc1O [Compd. No. 1452, 1-[3-hydroxy-4-methoxybenzyl]-4-[[N-(3-(trifluoromethyl)benzoyl)glycyl]aminomethyl]piperidine] | 20 to 50 | – |
| Nc1ccc(Cl)cc1C(=O)NCC(=O)N[C@@H]1CCN(Cc2ccc(Cl)cc2)C1 [Compd. No. 1084, (R)-1-(4-chlorobenzyl)-3-[[N-(2-amino-5-chlorobenzoyl)glycyl]amino]pyrrolidine] | 50 to 80 | – |
| Nc1ccc(Br)cc1C(=O)NCC(=O)NCC1CCN(Cc2ccc(Cl)cc2)CC1 [Compd. No. 1042, 4-[N-(2-amino-5-bromobenzoyl)glycyl]aminomethyl-1-(4-chlorobenzyl)piperidine] | – | ≤ 100 |
| Nc1cc(Cl)ccc1CN1CCC(CNC(=O)CNC(=O)c2cc(C(F)(F)F)ccc2N)CC1 [Compd. No. 1919, 4-[[N-(2-amino-5-trifluoromethylbenzoyl)glycyl]aminomethyl]-1-(2-amino-4-chlorobenzyl)piperidine] | – | ≤ 100 |
| COCCNC(=O)c1ccc(CN2CCC(CNC(=O)CNC(=O)c3cccc(C(F)(F)F)c3)CC2)cc1 [Compd. No. 1612, 1-[4-[N-(2-methoxyethyl)carbamoyl]benzyl]-4-[[N-(3-(trifluoromethyl)benzoyl)glycyl]aminomethyl]piperidine] | 20 to 50 | – |
| Cc1noc(C)c1CN1CC[C@@H](NC(=O)CNC(=O)c2cc(F)cc(C(F)(F)F)c2)C1 [Compd. No. 1191, (R)-3-[N-[3-fluoro-5-(trifluoromethyl)benzoyl]glycyl]amino-1-(3,5-dimethylisoxazol-4-ylmethyl)-pyrrolidine] | – | ≤ 100 |
| COc1ccc(CN2CC[C@@H](NC(=O)CNC(=O)c3cc(OC(F)(F)F)ccc3N)C2)cc1O [Compd. No. 1896, (R)-3-[[N-(2-amino-5-trifluoromethoxybenzoyl)glycyl]amino]-1-(3-hydroxy-4-methoxybenzyl)pyrrolidine] | – | ≤ 100 |
| O=C(CNC(=O)c1cccc(C(F)(F)F)c1)NCC1CCN(Cc2ccc(Cl)cc2)CC1 [Compd. No. 461, 1-(4-chlorobenzyl)-4-[[N-[3-(trifluoromethyl)benzoyl]glycyl]aminomethyl]piperidine] | – | ≤ 100 |
| Cc1ccc(C(=O)NCC(=O)NCC2CCN(Cc3ccc(Cl)cc3)CC2)cc1Br [Compd. No. 1113, 4-[[N-(3-bromo-4-methylbenzoyl)glycyl]aminomethyl]-1-(4-chlorobenzyl)piperidine] | 50 to 80 | – |
| C=Cc1ccc(CN2CC[C@@H](NC(=O)CNC(=O)c3cc(C(F)(F)F)ccc3N)C2)cc1 [Compd. No. 1701, (R)-3-[[N-(2-amino-5-(trifluoromethyl)benzoyl)glycyl]amino]-1-(4-vinylbenzyl)pyrrolidine] | – | ≤ 100 |

Second part, the compound after the results:

| inhibition at 1 µM [1] [%] | IC50 [2] [nM] | SMILES |
| --- | --- | --- |
| > 80 | ≤ 100 | Nc1ccc(C(F)(F)F)cc1C(=O)NCC(=O)N[C@@H]1CCN(c2ccc3ocnc3c2)C1 [Compd. No. 2189, (R)-3-[[N-(2-amino-5-trifluoromethylbenzoyl)glycyl]amino]-1-(benz[d]oxazol-5-yl)pyrrolidine] |
| 20 to 50 | – | Cc1noc(C)c1N1CCC(CNC(=O)CNC(=O)c2cc(F)c(F)cc2N)CC1 [Compd. No. 2131, 4-[[N-(2-amino-4,5-difluorobenzoyl)glycyl]aminomethyl]-1-(3,5-dimethylisoxazol-4-yl)piperidine] |
| – | ≤ 100 | CNc1cc(CN2CC[C@@H](NC(=O)CNC(=O)c3cc(C(F)(F)F)ccc3N)C2)ccc1O [Compd. No. 2158, (R)-3-[[N-(2-amino-5-trifluoromethylbenzoyl)glycyl]amino]-1-(3-methylamino-4-hydroxybenzyl)pyrrolidine] |
| 20 to 50 | – | Nc1cc(F)c(F)cc1C(=O)NCC(=O)NCC1CCN(c2ccc3nonc3c2)CC1 [Compd. No. 2130, 4-[[N-(2-amino-4,5-difluorobenzoyl)glycyl]aminomethyl]-1-(benzo[c]furazan-5-yl)piperidine] |
| – | ≤ 100 | Nc1cc(CN2CCC(CNC(=O)CNC(=O)c3cc(F)c(F)cc3N)CC2)ccc1O [Compd. No. 2141, 4-[[N-(2-amino-4,5-difluorobenzoyl)glycyl]aminomethyl]-1-(3-amino-4-hydroxybenzyl)piperidine] |
| – | ≤ 100 | Nc1cc(CN2CC[C@@H](NC(=O)CNC(=O)c3cc(C(F)(F)F)ccc3N)C2)ccc1Cl [Compd. No. 2132, (R)-1-(3-amino-4-chlorobenzyl)-3-[[N-(2-amino-5-trifluoromethylbenzoyl)glycyl]amino]pyrrolidine] |
| 50 to 80 | – | COc1ncc(CN2CC[C@@H](NC(=O)CNC(=O)c3cc(C(F)(F)F)ccc3N)C2)c(OC)n1 [Compd. No. 2175, (R)-3-[[N-(2-amino-5-trifluoromethylbenzoyl)glycyl]amino]-1-(2,4-dimethoxypyrimidin-5-ylmethyl)pyrrolidine] |
| – | ≤ 100 | Nc1cc(Cl)ccc1CN1CC[C@@H](NC(=O)CNC(=O)c2cc(OC(F)(F)F)ccc2N)C1 [Compd. No. 1921, (R)-3-[[N-(2-amino-5-trifluoromethoxybenzoyl)glycyl]amino]-1-(2-amino-4-chlorobenzyl)pyrrolidine] |
| – | ≤ 100 | Cc1ccc(CN2CCC(CNC(=O)CNC(=O)c3cc(F)c(F)cc3N)CC2)cc1N [Compd. No. 2114, 4-[[N-(2-amino-4,5-difluorobenzoyl)glycyl]aminomethyl]-1-(3-amino-4-methylbenzyl)piperidine] |
